The values that follow come from patent US20100022582A1, “Tetrahydroisoquinoline Compound and Medicinal Use Thereof” (priority 2005, published 2010).

For data set [1], the system named is THP-1 cell-derived macrophage. The data set is described as follows: Cholesterol ester accumulation-inhibitory activity (THP-1 cell-derived macrophage foam cell formation). Type of data set: cell-based. Conditions: THP-1 macrophage, acetyl LDL, 3 days. The method, then: THP-1 cells (DAINIPPON PHARMACEUTICAL CO., LTD.) were subcultured in RPMI-1640 medium containing 10% fetal calf serum (FBS), and cells at 6-13th passage after purchase were used. The cells were suspended in FBS-containing RPMI-1640 medium to give a suspension having a concentration of 4×10^5 cells/mL. The cell suspension was seeded on 12-well microplate by 1 mL, and treated with phorbol 12-myristate 13-acetate (PMA, 200 nM) as a differentiation inducer into macrophage. Then, acetyl LDL (400 μg/mL) separately prepared from LDL derived from plasma of a rabbit with genetic hyperlipidemia (KHC rabbit, Japan Laboratory Animals Inc.) was added. A test compound further dissolved in dimethyl sulfoxide (DMSO) and diluted with FBS-containing RPMI-1640 medium and a control solvent were applied. After cultivation in a carbon dioxide incubator for 3 days, the cells were washed with phosphate-buffered saline (pH 7.0), and the lipid was extracted with hexane-isopropanol (3:2). In addition, the cells were lysed with 1N-NaOH, and the protein content was measured. Free cholesterol and cholesterol ester in the lipid extraction sample were measured according to the method of Kunitomo et al. [Japan. J. Pharmacol., 34, 153-158 (1984)]. Cholesterol esters in the control cells and the cells treated with the test compound were compared, and the cholesterol ester accumulation inhibitory rate of the test compound was calculated.

The test system of data set [2] is cholesterol secretion from the liver. The data set can be described thus: Mouse liver lipid secretion-inhibitory activity (Triton WR-1339 method). The format is in vivo, Slc: ICR mice. The note with it: (10 mg)/kg orally; 3 hr after Triton WR-1339; mice. The protocol: About 5-week-old male Slc: ICR mice (Japanese SLC) were preliminarily bred for 1 week by feeding only in the daytime (9:00-18:00). During this period, the mice were-allowed to freely take tap water even during night. The mice were divided into a control group and a test compound group (6 mice per group) so that the average and standard deviation of the body weight would be almost the same. Blood (about 80 μL) was drawn from the orbital venous plexus under anesthesia using a glass capillary, and a test compound solution (10 mL/kg) obtained by previously suspending the compound in 5% gum arabic solution at 30 min after the blood sampling was orally administered. At 30 min after the administration, Triton WR-1339 (60 mg/mL) solution previously prepared with physiological saline was administered from the tail vein at a dose of 5 mL/kg. Blood was drawn again from the orbital venous plexus at 3 hr after the administration of Triton WR-1339. Plasma was separated from the blood taken and the total plasma cholesterol (TC) was measured using a commercially available measurement kit (Wako Pure Chemical Industries, Ltd.). The changes in the blood concentration over 3 hr after the Triton WR-1339 administration were calculated and taken as the cholesterol secretion rate from the liver. The secretion rates were compared between the control group and the test compound group, and the cholesterol secretion inhibitory rate by the test compound was calculated.

Data set [3] can be described thus: Stable radical elimination action (DPPH). Conditions: 0.1 mM DPPH. The protocol:
0.1 mM Diphenyl-2-picrylhydrazyl (DPPH) acetonitrile (CH3CN) solution (3 mL) was placed in a glass test tube, and a DMSO solution of a test compound was added at a 1% dose (30 μL). As a control, 0.1 mM DPPH CH3CN solution (3 mL) containing DMSO (30 μL) was used and for a blank test, CH3CN (3 mL) containing DMSO (30 μL) was used. After standing the solutions at room temperature for 60 min (20 min for Examples 69, 72 and 73), the absorbance at 517 nm was measured by a spectrophotometer. A stable radical inhibitory rate when control was 100% was calculated from [(absorbance of test substance−absorbance of blank test)÷(absorbance of control−absorbance of blank test)].

In another data set the test system is liver ACAT. The data set can be described thus: ACAT inhibitory activity (rabbit liver microsome, cholesteryl oleate production). The note with it: 37° C. for 20 min. The format is biochemical, Japanese white rabbits. The protocol:
Male Japanese white rabbits (body weight 2-2.5 kg) were bred on 100 g of a high cholesterol feed (feed added with cholesterol 1%, CLEA Japan, Inc.) daily for 4 weeks and sacrificed by exsanguination under anesthesia. The liver was removed, homogenated and centrifuged at 10,000 rpm and 4° C. for 15 min. The obtained supernatant was further centrifuged at 41,000 rpm and 4° C. for 60 min to give a microsome fraction. To a 0.15 M phosphate buffer were added the microsome suspension as an enzyme specimen, dimethyl sulfoxide (DMSO) or a solution (3 μL) of a test compound in DMSO and [1-14C]-oleoyl-CoA to be a reaction substrate to the total amount of 300 μL. After incubation at 37° C. for 20 min, a mixed solution of chloroform-methanol was added to quench the reaction. Water was added thereto and mixed, and the chloroform layer was separated. The solvent was evaporated to dryness and the residue was redissolved in n-hexane. The resulting solution was subjected to thin layer chromatography using a silica gel plate. The spot of cholesteryl oleate on the silica gel plate was scraped and quantified on a liquid scintillation counter. The ACAT inhibitory activity of the test compound is shown in cholesteryl oleate production inhibitory rate (%) [level of inhibition of cholesteryl oleate production as compared to the control].

Data set [4] in a line: Oral administration experiment (plasma concentration). Type of data set: in vivo. Conditions: (10 mg)/kg orally, male SD rats, plasma 0.5-6 hr. The protocol: The test compound (10 mg)/kg suspended in 5% gum arabic solution was forcedly administered orally to male SD rats (body weight 200-250 g). At 0.5, 1, 2, 4, 6 hr after administration, blood was drawn without anesthesia, and heparin plasma was separated by a conventional method. The concentration of the test compound in the plasma was measured by high performance liquid chromatography.

For data set [5], the system named is brain homogenate lipid peroxidation. The data set is described as follows: Lipid peroxidation-inhibitory action (brain homogenate, MDA). The format is biochemical, SD rat. The note with it: rat brain homogenate, 37° C. for 30 min. The method, then: The brain was removed from male SD rat, and a 50 mM phosphate buffer (pH 7.4, 5-fold amount of brain weight) was added. The mixture was homogenized under ice-cooling for 30 sec, and centrifuged at 4° C., 3200 rpm for 10 min. The supernatant was diluted 5-fold with 50 mM phosphate buffer to give a brain homogenate. A test compound (10 μL) was placed in a glass test tube, the brain homogenate (1 mL) was added, and the mixture was incubated at 37° C. for 30 min. 20% Trichloroacetic acid (1 mL) was added to quench the reaction. The reaction mixture was centrifuged at room temperature, 4000 rpm for 10 min. Thiobarbituric acid (0.2 mL) was added to the supernatant (1 mL) and the mixture was heated at 95° C. for 15 min. The absorbance at 532 nm was measured, and lipid peroxide was quantified as malondialdehyde (MDA). The MDA level was compared between the control and the test compound-added sample, and the lipid peroxidation inhibitory rate was calculated.

Where [6] appears, read: room temperature 20 min (Examples 69, 72 and 73).

In the case of `CCC(C)(C)C(=O)N1Cc2cc(N(C)C)ccc2C[C@H]1C(=O)Nc1cc(C)c(O)c(C)c1C.Cl` [Example 69, 7-dimethylamino-2-(2,2-dimethylbutyryl)-N-(4-hydroxy-2,3,5-trimethylphenyl)-1,2,3,4-tetrahydroisoquinoline-(3S)-carboxamide hydrochloride], the “cholesteryl ester accumulation inhibitory rate (%) (concentration: 10^−6 M)” value in data set [1] is given as 99.4%. Further, the “Cholesterol secretion inhibitory rate (%) (10 mg)/kg/3 hr” value in data set [2] is listed as 31.4%. Besides, in data set [3] (setting [6]), the “inhibitory rate (%) (10^−4M), stable radical” value was 97.0%.
Take `C/C=C/C=C/C(=O)N1Cc2cc(N(C)C)ccc2C[C@H]1C(=O)Nc1cc(C)c(O)c(C)c1C.Cl` [Example 70, 7-dimethylamino-2-[(2E,4E)-hexadienoyl]-N-(4-hydroxy-2,3,5-trimethylphenyl)-1,2,3,4-tetrahydroisoquinoline-(3S)-carboxamide hydrochloride]: in data set [2], the “Cholesterol secretion inhibitory rate (%) (10 mg)/kg/3 hr” value worked out at 23.0%.
As for `Cc1cc(NC(=O)[C@@H]2Cc3ccc(N(C)C)cc3CN2C(=O)C(C)(C)C)c(C)c(C)c1O.Cl` [Example 73, 7-dimethylamino-2-(2,2-dimethylpropionyl)-N-(4-hydroxy-2,3,5-trimethylphenyl)-1,2,3,4-tetrahydroisoquinoline-(3S)-carboxamide hydrochloride], in the data set on liver ACAT, the “liver ACAT inhibition rate (%) (concentration: 10^−6 M)” value is 97.7%. For the same compound, the “cholesteryl ester accumulation inhibitory rate (%) (concentration: 10^−6 M)” value in data set [1] is listed as 91.8%. Further, in data set [2], the “Cholesterol secretion inhibitory rate (%) (10 mg)/kg/3 hr” value was found to be 32.9%. Further, the “maximum blood concentration” value in data set [4] came out at 0.55 µg/mL. Moreover, the “inhibitory rate (%) (10^−4M), stable radical” value in data set [3] (setting [6]) is recorded as 97.0%.
`COC1CN(Cc2ccc3c(c2)CN(C(=O)C(C)(C)C)[C@H](C(=O)Nc2cc(C)c(O)c(C)c2C)C3)C1.Cl` [Example 143, 2-(2,2-dimethylpropionyl)-N-(4-hydroxy-2,3,5-trimethylphenyl)-7-(3-methoxyazetidin-1-yl)methyl-1,2,3,4-tetrahydroisoquinoline-(3S)-carboxamide hydrochloride]: the “cholesteryl ester accumulation inhibitory rate (%) (concentration: 10^−6 M)” value in data set [1] is given as 60.9%. Moreover, the “maximum blood concentration” value in data set [4] was 0.46 µg/mL. For the same compound, the “inhibitory rate (%) (10^−4M), stable radical” value in data set [3] (room temperature for 60 min) was determined as 61.0%. Besides, the “inhibitory rate (%) (10^−4M), lipid peroxidation” value in data set [5] was found to be 64.1%.
